Measured values from ChEMBL document CHEMBL1201862, “PubChem BioAssay data set” (2004).
Values joined by “and” are separate entries in the source; they are usually repeats but may differ in a detail not shown here. Equal values may be shown once. Active and inactive are the calls of the source.

Key:
[1] = target: T1, Ubiquitin-conjugating enzyme E2 N (Homo sapiens, UniProt P61088); assay type: functional;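 also: Dose-response confirmation in a TR-FRET assay detecting UBC13-driven polyubiquitin chain formation, inhibition measured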
T1 sequence (P61088 whole entry): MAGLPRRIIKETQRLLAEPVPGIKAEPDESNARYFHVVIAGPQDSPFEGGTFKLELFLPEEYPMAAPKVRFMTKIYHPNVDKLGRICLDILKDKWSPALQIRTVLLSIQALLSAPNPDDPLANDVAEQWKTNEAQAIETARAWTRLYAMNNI

[2] = target: DNA dC->dU-editing enzyme APOBEC-3A (Homo sapiens, UniProt P31941); experiment: Dose Response confirmation of small molecule APOBEC3A DNA Deaminase Inhibitors via a fluorescence-based single-stranded DNA deaminase assay. [Related pubchem assays (depositor defined):AID493011, AID493024]; assay type: functional
[3] = target: DNA dC->dU-editing enzyme APOBEC-3G (Homo sapiens, UniProt Q9HC16); assay type: functional;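 also: Dose-response counterscreen measuring inhibition of APOBEC3G DNA deaminase activity, run while confirming APOBEC3A inhibitors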
[4] = target: T2, Carboxy-terminal domain RNA polymerase II polypeptide A small phosphatase 1 (Homo sapiens, UniProt Q9GZU7); experiment: CTDSP1 inhibitors, concentration-response, biochemical, absorbance readout, ultra-high-throughput screen actives (AID 540297); assay type: functional
T2 sequence (Q9GZU7 whole entry): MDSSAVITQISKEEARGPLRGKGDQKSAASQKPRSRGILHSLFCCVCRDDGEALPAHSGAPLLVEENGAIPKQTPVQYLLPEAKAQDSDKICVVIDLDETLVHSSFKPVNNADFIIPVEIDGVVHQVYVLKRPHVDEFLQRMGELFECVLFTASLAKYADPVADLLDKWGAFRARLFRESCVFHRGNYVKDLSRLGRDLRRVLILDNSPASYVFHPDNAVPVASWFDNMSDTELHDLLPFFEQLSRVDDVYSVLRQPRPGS

[5] = target: T3, Short transient receptor potential channel 4 (Mus musculus, UniProt Q9QUQ5); experiment: block of DAMGO-driven TRPC4 calcium entry – cell-based, HEK293 TRPC4/mu-opioid, Fluo-4 calcium, dose response (AID 434942); assay type: functional;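 also: potency of inhibitors blocking the TRPC4 calcium response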
T3 sequence (Q9QUQ5 whole entry): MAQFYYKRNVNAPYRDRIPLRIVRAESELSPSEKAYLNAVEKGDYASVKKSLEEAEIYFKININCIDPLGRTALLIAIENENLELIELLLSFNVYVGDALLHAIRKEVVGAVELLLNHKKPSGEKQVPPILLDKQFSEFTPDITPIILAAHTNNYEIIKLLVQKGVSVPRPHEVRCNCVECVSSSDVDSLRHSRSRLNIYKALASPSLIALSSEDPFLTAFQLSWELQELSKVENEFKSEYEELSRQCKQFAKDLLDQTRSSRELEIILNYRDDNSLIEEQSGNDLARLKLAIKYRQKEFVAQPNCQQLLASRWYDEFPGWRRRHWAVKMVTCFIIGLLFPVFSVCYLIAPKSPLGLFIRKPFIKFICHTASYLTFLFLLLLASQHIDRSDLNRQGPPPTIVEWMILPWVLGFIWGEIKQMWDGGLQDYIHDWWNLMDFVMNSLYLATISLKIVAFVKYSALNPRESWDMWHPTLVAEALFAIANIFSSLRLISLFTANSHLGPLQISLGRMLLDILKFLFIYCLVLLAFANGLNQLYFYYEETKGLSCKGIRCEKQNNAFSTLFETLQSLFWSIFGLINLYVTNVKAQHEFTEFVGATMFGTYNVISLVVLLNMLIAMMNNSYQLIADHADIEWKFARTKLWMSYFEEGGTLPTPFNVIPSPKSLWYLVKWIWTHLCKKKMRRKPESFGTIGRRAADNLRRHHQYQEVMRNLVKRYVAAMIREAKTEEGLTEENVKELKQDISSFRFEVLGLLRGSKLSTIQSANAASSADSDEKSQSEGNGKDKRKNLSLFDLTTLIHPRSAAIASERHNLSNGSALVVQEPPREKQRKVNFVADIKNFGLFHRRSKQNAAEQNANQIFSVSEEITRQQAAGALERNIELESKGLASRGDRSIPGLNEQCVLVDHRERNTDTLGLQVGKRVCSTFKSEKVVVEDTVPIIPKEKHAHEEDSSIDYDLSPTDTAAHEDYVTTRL

Cytochrome P450 3A4 [6] = target: T4, Cytochrome P450 3A4 (Homo sapiens, UniProt P08684); details: Potency
Large T antigen = Large T antigen (Simian virus 40, UniProt P03070); assay type: functional, Betapolyomavirus macacae;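 also: Confirmatory-stage PubChem screen for compounds that inhibit SV40 T antigen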
[7] = target: FAD-linked sulfhydryl oxidase ALR (Homo sapiens, UniProt P55789); experiment: ALR-catalysed DTT oxidation blockers – biochemical, H2O2 detection, luminescence, cherry-pick, dose response (AID 493248)
[8] = target: T5, Heat shock factor protein 1 (Mus musculus, UniProt P38532); experiment: decrease of HSF1-responsive luciferase luminescence – cell-based, NIH3T3, dose retest, confirmation (AID 2382); assay type: functional;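 also: NIH3T3 fibroblasts with HSF1-driven luciferase reporter stressed by proteasome inhibitor MG132; luminescence from HSF1-driven luciferase expression after 8 hours of MG132 stress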
T5 sequence (P38532 whole entry): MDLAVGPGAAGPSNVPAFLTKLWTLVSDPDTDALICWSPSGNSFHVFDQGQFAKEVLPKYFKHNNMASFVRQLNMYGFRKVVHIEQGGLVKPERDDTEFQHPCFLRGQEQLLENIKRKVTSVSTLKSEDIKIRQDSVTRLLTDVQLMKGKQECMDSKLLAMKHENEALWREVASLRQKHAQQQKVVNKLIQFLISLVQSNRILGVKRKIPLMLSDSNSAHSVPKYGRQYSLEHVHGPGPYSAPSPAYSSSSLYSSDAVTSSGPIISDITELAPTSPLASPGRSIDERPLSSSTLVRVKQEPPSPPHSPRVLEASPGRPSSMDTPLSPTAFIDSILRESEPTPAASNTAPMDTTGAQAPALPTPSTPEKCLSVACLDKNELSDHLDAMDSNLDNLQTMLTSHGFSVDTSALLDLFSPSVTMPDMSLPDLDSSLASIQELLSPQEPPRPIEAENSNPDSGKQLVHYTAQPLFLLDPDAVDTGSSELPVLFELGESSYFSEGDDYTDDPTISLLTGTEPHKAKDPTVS

cells = assay type: functional
[9] = target: T5, Heat shock factor protein 1; experiment: enhancement of HSF1-driven luciferase signal – cell-based, NIH3T3, luminescence, dose retest, confirmation (AID 435004); assay type: functional;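 also: stress induced by proteasome inhibitor MG132 added 30 min after compound; luciferase reporter driven by HSF1 response element in NIH3T3 cells; actives raise luminescence as potentiators of the MG132 stress response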
[10] = blockers of bursicon-stimulated LGR2 cAMP reporter – cell-based, HEK293, CRE-luciferase reporter, cherry pick, set 2, dose response (AID 743343); assay type: functional;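 also: transfected cells were stimulated with diluted bursicon conditioned medium after compound addition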
[11] = blockade of melanocortin 4 receptor signaling – cell-based, plate reader, cherry pick, counter-screen for LGR2 antagonist project, dose response (AID 743444); assay type: functional;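 also: transfected HEK 293 cells stimulated with alpha-MSH peptide; potency of inhibitors of the alpha-MSH evoked signal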
[12] = viability loss in HEK293 cells – cell-based, plate reader, cherry-picked samples, cytotoxicity control, dose response (AID 743446); assay type: functional
[13] = A549 cell cytotoxicity, dose response, cytotoxicity control, plate reader, cherry-pick, antagonist series (AID 743412); assay type: functional, cell-based
[14] = toxicity toward HepG2 liver cells – cell-based, plate reader, cherry-pick, antagonist series, cytotoxicity control, dose response (AID 743416); assay type: functional
Cytochrome P450 3A4 [15] = target: T4, Cytochrome P450 3A4
[16] = blockers of HIV-1 ZM109 envelope-driven cell-cell fusion – HeLa effector, CEM target cells, luciferase, cherry-pick, dose response (AID 652058); assay type: functional, cell-based;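 also: luciferase signal from HIV-1 Env mediated cell-cell fusion of effector and target cells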
[17] = P. falciparum Dd2 growth inhibitors, dose response, SYBR Green, cherry-picked samples (AID 1159567); assay type: functional, cell-based
[18] = microbe, parasite or virus in culture; assay type: functional; details: Mycobacterium tuberculosis

DNA dC->dU-editing enzyme APOBEC-3A, sequence (P31941 whole entry): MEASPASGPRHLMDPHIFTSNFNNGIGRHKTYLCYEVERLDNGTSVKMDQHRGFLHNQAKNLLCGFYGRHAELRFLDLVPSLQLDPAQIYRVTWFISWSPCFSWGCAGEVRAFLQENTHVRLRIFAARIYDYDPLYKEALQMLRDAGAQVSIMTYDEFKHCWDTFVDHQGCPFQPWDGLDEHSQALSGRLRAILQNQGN
DNA dC->dU-editing enzyme APOBEC-3G, sequence (Q9HC16 whole entry, the tested form may be a part): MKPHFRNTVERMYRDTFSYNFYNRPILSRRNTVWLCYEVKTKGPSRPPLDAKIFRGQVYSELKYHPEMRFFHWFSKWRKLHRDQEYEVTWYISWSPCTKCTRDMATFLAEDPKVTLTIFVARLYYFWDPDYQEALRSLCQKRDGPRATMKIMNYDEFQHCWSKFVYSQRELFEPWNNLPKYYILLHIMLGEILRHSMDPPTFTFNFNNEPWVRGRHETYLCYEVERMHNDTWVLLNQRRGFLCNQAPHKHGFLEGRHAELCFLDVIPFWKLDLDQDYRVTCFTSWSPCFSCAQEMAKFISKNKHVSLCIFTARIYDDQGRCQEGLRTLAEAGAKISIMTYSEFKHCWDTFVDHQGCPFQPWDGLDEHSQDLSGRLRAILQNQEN
FAD-linked sulfhydryl oxidase ALR, sequence (P55789 whole entry): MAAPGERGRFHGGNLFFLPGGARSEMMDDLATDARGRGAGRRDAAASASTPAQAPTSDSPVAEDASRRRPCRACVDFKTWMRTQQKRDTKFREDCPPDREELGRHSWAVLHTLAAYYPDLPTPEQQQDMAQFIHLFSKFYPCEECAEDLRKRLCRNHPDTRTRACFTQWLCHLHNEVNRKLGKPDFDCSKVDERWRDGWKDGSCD
Large T antigen, sequence (P03070 whole entry): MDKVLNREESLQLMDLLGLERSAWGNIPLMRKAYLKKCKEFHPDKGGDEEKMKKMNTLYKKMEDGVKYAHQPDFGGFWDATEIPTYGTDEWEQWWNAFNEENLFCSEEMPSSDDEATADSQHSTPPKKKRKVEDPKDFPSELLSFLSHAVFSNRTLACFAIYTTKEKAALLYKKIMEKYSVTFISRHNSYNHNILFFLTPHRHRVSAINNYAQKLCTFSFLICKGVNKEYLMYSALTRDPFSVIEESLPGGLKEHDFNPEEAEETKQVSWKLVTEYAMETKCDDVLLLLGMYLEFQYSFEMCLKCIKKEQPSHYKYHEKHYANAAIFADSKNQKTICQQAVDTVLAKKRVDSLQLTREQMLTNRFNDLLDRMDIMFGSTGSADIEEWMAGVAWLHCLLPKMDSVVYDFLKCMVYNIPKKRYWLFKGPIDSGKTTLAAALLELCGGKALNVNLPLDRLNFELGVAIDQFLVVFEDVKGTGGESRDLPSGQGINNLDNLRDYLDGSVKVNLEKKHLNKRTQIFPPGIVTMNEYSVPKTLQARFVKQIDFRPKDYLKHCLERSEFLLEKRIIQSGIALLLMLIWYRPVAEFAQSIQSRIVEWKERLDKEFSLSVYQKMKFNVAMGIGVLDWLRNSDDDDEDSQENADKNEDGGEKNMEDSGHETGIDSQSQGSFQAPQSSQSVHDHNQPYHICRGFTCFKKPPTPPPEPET
T4 sequence (P08684 whole entry): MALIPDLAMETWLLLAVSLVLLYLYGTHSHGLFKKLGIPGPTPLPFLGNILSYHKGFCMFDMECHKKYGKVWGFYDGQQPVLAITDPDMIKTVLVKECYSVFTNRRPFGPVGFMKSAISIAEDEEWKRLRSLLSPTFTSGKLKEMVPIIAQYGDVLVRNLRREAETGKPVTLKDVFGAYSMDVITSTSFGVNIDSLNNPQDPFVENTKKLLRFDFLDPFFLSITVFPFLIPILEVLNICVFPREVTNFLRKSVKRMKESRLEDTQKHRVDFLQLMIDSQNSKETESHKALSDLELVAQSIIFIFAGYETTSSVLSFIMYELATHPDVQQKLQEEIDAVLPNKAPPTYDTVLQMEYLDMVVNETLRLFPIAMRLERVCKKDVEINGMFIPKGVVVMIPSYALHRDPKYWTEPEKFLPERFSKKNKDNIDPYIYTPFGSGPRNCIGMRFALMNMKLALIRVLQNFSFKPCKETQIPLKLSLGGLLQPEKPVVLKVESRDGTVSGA

SMILES: Cc1ccc2[nH]c(O)c(/N=N/C(=N)S)c2c1
- IC50 [1]: > 20 µM (inactive)

SMILES: CCCCCCSc1cc(-c2nc3cc(C)ccn3c2NC2CCCCC2)ccc1OC
- IC50 [1]: > 20 µM (inactive)

SMILES: COc1cc(/C=C/c2cc[n+](C)cc2)ccc1OCC(=O)Nc1ccccc1
- IC50 [2]: 2.93 µM (active)
- IC50 [3]: 2.02 µM (active)
- IC50 [4]: 5.84 µM (active)

SMILES: NS(=O)(=O)c1ccc(CCNCc2ccccc2OCc2ccc(F)cc2)cc1
- EC50 [5]: 3.35 µM (active)

SMILES: O=C1OC(C2=CCCCC2)=NC12CC2
- AC50 (Cytochrome P450 3A4 [6]): 5.01 µM (inconclusive)

SMILES: N#CC1=C(S)N(c2ccccc2)C(c2ccc(-c3ccc(Cl)c(Cl)c3)o2)NC1=O (stereo not given)
- IC50 (Large T antigen): 62.7 µM (active)

SMILES: O=C(c1ccc2c(c1)OCO2)N1CCN=C1SCc1ccccc1
- AC50 [7]: > 100 µM (inactive)

SMILES: CCC1=C2CC[C@H]3C(=O)N(CC)C(=O)[C@H]3[C@H]2[C@@]2(C)/C(=N/CC(=O)OC)OC(=O)N2C1=O
- AC50 (Cytochrome P450 3A4 [6]): 15.8 µM (inconclusive)

SMILES: C[C@@]12CCC(O)C[C@H]1CCC1C2CC[C@]2(C)C(=O)CCC12 (stereo not given in full)
- AC50 (Cytochrome P450 3A4 [6]): 15.8 µM (inconclusive)

SMILES: Clc1ccc(-c2nc3cnccn3c2NC2CCCC2)cc1
- AC50 [7]: 4.85 µM (active)

SMILES: COc1ccc(Nc2c3c(nc4ccccc24)CCCC3)cc1OC
- AC50 [7]: 0.511 µM (active)

SMILES: CC(=O)Nc1ccc(-c2ccccc2)s1
- IC50 [2]: 5.3 µM (active)
- IC50 [3]: 5.05 µM (active)

SMILES: N=C1/C(=C/c2ccco2)C(=O)N=C2SC(CC(=O)N3CCCC3)=NN12
- IC50 [2]: 18.5 µM (active)
- IC50 [3]: 37.6 µM (active)
- IC50 [4]: 7.01 µM (active)

SMILES: CCCC[N+]12CCC(CC1)C(C(O)(c1ccccc1)c1ccccc1)C2 (stereo not given)
- EC50 [8]: > 195 µM (not active)
- IC50 [2]: 2.74 µM (active)
- IC50 [3]: 2.79 µM (active)

SMILES: CC1Cc2ccccc2N1C(=O)COC(=O)c1ccc(Cl)nc1 (stereo not given)
- IC50 (cells): 39.8 µM (active)

SMILES: CN(C)c1ccc(NC(=O)c2cccc(N3C(=O)CCC3=O)c2)cc1
- IC50 (Large T antigen): 9.21 µM (active)

SMILES: COC(=O)CNC(=O)C1(CC(C)C)C=CCN1C(=O)c1ccccc1 (stereo not given)
- AC50 (Cytochrome P450 3A4 [6]): 20 µM (inconclusive)

SMILES: Cc1cc(Cl)ccc1OC(C)C(=O)Nc1ccc([N+](=O)[O-])cn1 (stereo not given)
- IC50 (cells): 38 µM (active)

SMILES: O=C(Nc1ccc(Oc2ccccc2)nc1)C1CCN(Cc2ccccc2)CC1
- EC50 [5]: 2.37 µM (active)

SMILES: COC(=O)c1ccc(CSc2nc3ccccc3c(=O)n2CC(C)C)o1
- EC50 [5]: 3.35 µM (active)
- EC50 [9]: > 260 µM (inactive)

SMILES: Cc1c(C)c2ccc(OCC(=O)Nc3nccs3)cc2oc1=O
- AC50 [10]: 4.84 µM (active)
- AC50 [11]: 4.38 µM (active)
- AC50 [12]: > 52 µM (inactive)

SMILES: Cc1cc(C)cc(NC(=O)CCc2ccc(C)o2)c1
- IC50 (cells): 36.7 µM (active)

SMILES: O=C(Nc1nc2ccccc2s1)c1ccc2c(c1)OCO2
- AC50 [13]: > 52 µM (inactive)
- AC50 [10]: 3.49 µM (active)
- AC50 [11]: 4.59 µM (active)
- AC50 [14]: > 52 µM (inactive)
- AC50 [12]: 31.5 µM (active)

SMILES: CNC(=O)COc1ccc2oc3c(c2c1)CCCC3
- EC50 [5]: 1.33 µM (active)

SMILES: CCCCNc1nc(-c2ccccc2)c(C(=O)OCC)cc1C#N
- AC50 (Cytochrome P450 3A4 [15]): 28.2 µM (inconclusive)
- EC50 [5]: 1.19 µM (active)

SMILES: O=C(Nc1nnc(-c2cc(Cl)ccc2Cl)o1)C1=COCCO1
- IC50 (cells): 11.6 µM (active)

SMILES: CCOC(=O)c1cc(C#N)c(N2CCCCC2)nc1-c1ccccc1
- EC50 [5]: 3.76 µM (active)

SMILES: CC(C)NC(=O)N(C)C[C@@H]1Oc2ccc(NC(=O)C3CC3)cc2CC(=O)N([C@@H](C)CO)C[C@@H]1C
- AC50 [16]: 64.5 µM (active)

SMILES: COc1ccc(S(=O)(=O)Nc2ccc3c(c2)C(=O)N([C@@H](C)CO)C[C@H](C)[C@@H](CN(C)C(=O)Nc2cccc4ccccc24)OCCCC[C@H](C)O3)cc1
- AC50 [13]: 22.8 µM (active)
- AC50 [11]: 8.72 µM (active)
- AC50 [14]: > 52 µM (inactive)
- AC50 [12]: > 52 µM (inactive)

SMILES: C/C(CC(=O)Nc1ccc(N(C)C)cc1)=N\NC(=O)c1cnccn1
- IC50 (Large T antigen): 17.5 µM (active)

SMILES: CC(C)(C)[S@+]([O-])N1Cc2cc(C(=O)NC3CCC3)nc(-c3cccc(Br)c3)c2[C@@H]1CCO
- AC50 [17]: 7.47 µM (active)

SMILES: COc1ccc(-c2ccccc2[C@H]2[C@@H](CO)N(C(=O)C3CCOCC3)[C@H]2C#N)cc1
- AC50 [17]: > 39 µM (inactive)

SMILES: CO[C@@H]1CN(C)C(=O)c2ccc(NC(=O)Nc3cccc(F)c3)cc2OC[C@H](C)NC[C@H]1C
- AC50 [17]: 7.62 µM (active)

SMILES: CC1=NN(c2ccccc2)C(=O)C1C(=O)c1ccccc1 (stereo not given)
- CC50 [18]: > 40 µM (active)
- IC50 (cells): 42.1 µM (active)

SMILES: COc1cc(OC)c2c(=O)c(-c3ccccc3)c(C)oc2c1OC [2-METHYL-5,7,8-TRIMETHOXYISOFLAVONE]
- AC50 (Cytochrome P450 3A4 [6]): 20 µM (inconclusive)

SMILES: COc1cccc2c1cc([N+](=O)[O-])c1c(C(=O)O)cc3c(c12)OCO3 [ARISTOLOCHIC ACID]
- AC50 (Cytochrome P450 3A4 [6]): 10 µM (inconclusive) and 63.1 nM (inconclusive)
